From PubChem BioAssay AID1259411 (Chemical Carcinogenesis Research Information System (CCRIS), 2018)
Calls of active or inactive are those of the source. The rule behind the calls is not given here.

Tested on: rodent carcinogenicity bioassays, tumor incidence
Test: CCRIS carcinogenicity studies
In short: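 Archive of carcinogenicity, mutagenicity, tumor promotion and tumor inhibition results drawn from journals, NCI reports and other sources, expert-reviewed; covers 1985-2011 and is no longer updated.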

SMILES: C=C(C#N)C(=O)OCC(C)C
- carcinogen call (Species: RAT, Strain/Sex: F344/FEMALE, Route: IMPLANT, Dose: 0, 10, 100 µL INTO VENTRAL LIVER CAPSULE ONCE (STUDY DURATION: 2 YR), Dose: 0, 10, 100 µL INTO VENTRAL LIVER CAPSULE ONCE (STUDY DURATION: 2 YR), Tumor Site: Type of Lesion: BODY CAVITY: SARCOMA): active; positive
- carcinogen call (Species: RAT, Strain/Sex: F344/MALE, Route: IMPLANT, Dose: 0, 10, 100 µL INTO VENTRAL LIVER CAPSULE ONCE (STUDY DURATION: 2 YR), Dose: 0, 10, 100 µL INTO VENTRAL LIVER CAPSULE ONCE (STUDY DURATION: 2 YR), Tumor Site: Type of Lesion: BODY CAVITY: SARCOMA): active; positive

SMILES: CN(C)N=Nc1ccccc1
- carcinogen call (Species: RAT, Strain/Sex: SPRAGUE-DAWLEY/FEMALE, Route: INTRAPERITONEAL, TRANSPLACENTAL, Dose: 0, 1 MG/KG ADMINISTERED TO PREGNANT RATS ON DAY 16, 18 AND 20 OF GESTATION (STUDY DURATION: 1 YR), Tumor Site: Type of Lesion: KIDNEY: RENAL MESENCHYMAL TUMOR): active; positive
- carcinogen call (Species: RAT, Strain/Sex: SPRAGUE-DAWLEY/FEMALE, Route: INTRAPERITONEAL, TRANSPLACENTAL, Dose: 0, 10, 30, 60 MG/KG ADMINISTERED TO PREGNANT RATS ON DAY 20 OF GESTATION (STUDY DURATION: 1 YR), Dose: 0, 10, 30, 60 MG/KG ADMINISTERED TO PREGNANT RATS ON DAY 20 OF GESTATION (STUDY DURATION: 1 YR)): inactive; negative
- carcinogen call (Species: RAT, Strain/Sex: SPRAGUE-DAWLEY/MALE,FEMALE, Route: SUBCUTANEOUS, Dose: 50 MG/KG 1/WK FOR LIFE, Tumor Site: Type of Lesion: BRAIN, NERVOUS SYSTEM (CENTRAL)): active; positive
- carcinogen call (Species: RAT, Strain/Sex: SPRAGUE-DAWLEY/MALE, Route: INTRAPERITONEAL, TRANSPLACENTAL, Dose: 0, 1 MG/KG ADMINISTERED TO PREGNANT RATS ON DAY 16, 18 AND 20 OF GESTATION (STUDY DURATION: 1 YR), Tumor Site: Type of Lesion: BRAIN: TUMOR, DENTITIOUS TISSUE: ODONTOMA): active; positive
- carcinogen call (Species: RAT, Strain/Sex: SPRAGUE-DAWLEY/MALE, Route: INTRAPERITONEAL, TRANSPLACENTAL, Dose: 0, 10, 30, 60 MG/KG ADMINISTERED TO PREGNANT RATS ON DAY 20 OF GESTATION (STUDY DURATION: 1 YR), Dose: 0, 10, 30, 60 MG/KG ADMINISTERED TO PREGNANT RATS ON DAY 20 OF GESTATION (STUDY DURATION: 1 YR)): inactive; negative
- carcinogen call (Species: RAT, Strain/Sex: STRAIN-BD, Route: ORAL, SUBCUTANEOUS, Dose: 24.8, 43.4 MG/KG 1/WK (MEAN TOTAL DOSE 1.5 G/KG), Tumor Site: Type of Lesion: BRAIN, NERVOUS SYSTEM): active; positive

SMILES: Cn1cc(OCC(O)CNC(C)(C)C)c2ccccc2c1=O (stereo not drawn)
- carcinogen call (Species: MOUSE, Strain/Sex: CD-1/FEMALE, Route: GAVAGE, Dose: 0, 3, 10, 30 MG/KG/D FOR 80 WK IN WATER (STUDY DURATION: 80 WK), Dose: 0, 3, 10, 30 MG/KG/D FOR 80 WK IN WATER (STUDY DURATION: 80 WK)): inactive; negative
- carcinogen call (Species: MOUSE, Strain/Sex: CD-1/MALE, Route: GAVAGE, Dose: 0, 3, 10, 30 MG/KG/D FOR 80 WK IN WATER (STUDY DURATION: 80 WK), Dose: 0, 3, 10, 30 MG/KG/D FOR 80 WK IN WATER (STUDY DURATION: 80 WK)): inactive; negative

SMILES: O.O.O.O.O.[Cd+2].[Cd+2].[Cl-].[Cl-].[Cl-].[Cl-]
- carcinogen call (Species: HAMSTER, Strain/Sex: SYRIAN/FEMALE, Route: SUBCUTANEOUS, Dose: 0, 30, 40, 50 UMOL/KG ONCE ON THE FOURTH DAY OF THE ESTROUS CYCLE (STUDY DURATION: 78 WK), Dose: 0, 30, 40, 50 UMOL/KG ONCE ON THE FOURTH DAY OF THE ESTROUS CYCLE (STUDY DURATION: 78 WK)): inactive; negative
- carcinogen call (Species: HAMSTER, Strain/Sex: SYRIAN/MALE, Route: SUBCUTANEOUS, Dose: 0, 20 UMOL/KG ONCE (STUDY DURATION: 104 WK), Tumor Site: Type of Lesion: ADRENAL GLAND: TUMOR): active; positive
- carcinogen call (Species: MOUSE, Strain/Sex: C57/MALE, Route: SUBCUTANEOUS, Dose: 0, 20 UMOL/KG ONCE (STUDY DURATION: 104 WK)): inactive; negative
- carcinogen call (Species: MOUSE, Strain/Sex: NFS/MALE, Route: SUBCUTANEOUS, Dose: 0, 20 UMOL/KG ONCE (STUDY DURATION: 104 WK), Tumor Site: Type of Lesion: LYMPHOID TISSUE: LYMPHOMA): active; positive
- carcinogen call (Species: RAT, Strain/Sex: WISTAR/FEMALE, Route: ORAL, Dose: 0, 1, 3, 10, 50 PPM IN DIET FOR 104 WK (STUDY DURATION: 2 YR), Dose: 0, 1, 3, 10, 50 PPM IN DIET FOR 104 WK (STUDY DURATION: 2 YR)): inactive; negative
- carcinogen call (Species: RAT, Strain/Sex: WISTAR/MALE, Route: ORAL, Dose: 0, 1, 3, 10, 50 PPM IN DIET FOR 104 WK (STUDY DURATION: 2 YR), Dose: 0, 1, 3, 10, 50 PPM IN DIET FOR 104 WK (STUDY DURATION: 2 YR)): inactive; negative
- carcinogen call (Species: RAT, Strain/Sex: WISTAR/MALE, Route: ORAL, Dose: 0, 25, 50, 100, 200 PPM IN DIET FOR 77 WK TO RATS MAINTAINED ON ZINC ADEQUATE (60 PPM) DIET (STUDY DURATION: 79 WK), Dose: 0, 25, 50, 100, 200 PPM IN DIET FOR 77 WK TO RATS MAINTAINED ON ZINC ADEQUATE (60 PPM) DIET (STUDY DURATION: 79 WK), Tumor Site: Type of Lesion: HEMATOPOIETIC SYSTEM: LEUKEMIA, TESTIS: TUMOR): active; positive
- carcinogen call (Species: RAT, Strain/Sex: WISTAR/MALE, Route: ORAL, Dose: 0, 25, 50, 100, 200 PPM IN DIET FOR 77 WK TO RATS MAINTAINED ON ZINC DEFICIENT (7 PPM) DIET (STUDY DURATION: 79 WK), Dose: 0, 25, 50, 100, 200 PPM IN DIET FOR 77 WK TO RATS MAINTAINED ON ZINC DEFICIENT (7 PPM) DIET (STUDY DURATION: 79 WK), Tumor Site: Type of Lesion: HEMATOPOIETIC SYSTEM: LEUKEMIA): active; positive
- carcinogen call (Species: RAT, Strain/Sex: WISTAR/MALE, Route: SUBCUTANEOUS, Dose: 0, 5, 10, 30 UMOL ONCE ADMINISTERED TO RATS FED DIETS ADEQUATE (60 PPM) IN ZINC (STUDY DURATION: 92 WK), Dose: 0, 5, 10, 30 UMOL ONCE ADMINISTERED TO RATS FED DIETS ADEQUATE (60 PPM) IN ZINC (STUDY DURATION: 92 WK), Tumor Site: Type of Lesion: TESTES: ADENOMA): active; positive
- carcinogen call (Species: RAT, Strain/Sex: WISTAR/MALE, Route: SUBCUTANEOUS, Dose: 0, 5, 10, 30 UMOL ONCE ADMINISTERED TO RATS FED DIETS DEFICIENT (7 PPM) IN ZINC (STUDY DURATION: 92 WK), Dose: 0, 5, 10, 30 UMOL ONCE ADMINISTERED TO RATS FED DIETS DEFICIENT (7 PPM) IN ZINC (STUDY DURATION: 92 WK), Tumor Site: Type of Lesion: TESTES: ADENOMA, INJECTION SITE: SARCOMA): active; positive

SMILES: c1cc2ccc3ccc4ccc5cccc6c(c1)c2c3c4c56
- carcinogen call (Species: RAT, Strain/Sex: OSBORNE-MENDEL/FEMALE, Route: LUNG IMPLANT, Dose: 0, 0.16, 0.83, 4.15 MG IN BEESWAX/TRIOCTANOIN (STUDY DURATION: LIFETIME), Dose: 0, 0.16, 0.83, 4.15 MG IN BEESWAX/TRIOCTANOIN (STUDY DURATION: LIFETIME)): inactive; negative

SMILES: O=S(=O)(O)c1cc(S(=O)(=O)O)c2c(N=Nc3ccc(S(=O)(=O)O)c4ccccc34)c(O)ccc2c1
- carcinogen call (Species: RAT, Strain/Sex: WISTAR/FEMALE, Route: ORAL, Dose: 0, 50, 500, 1250 MG/KG/D IN DIET TO PUPS OF PARENTS GIVEN THE SAME DIETARY DOSE LEVELS FOR 60 D PRIOR TO MATING (STUDY D, Dose: 0, 50, 500, 1250 MG/KG/D IN DIET TO PUPS OF PARENTS GIVEN THE SAME DIETARY DOSE LEVELS FOR 60 D PRIOR TO MATING (STUDY D): inactive; negative
- carcinogen call (Species: RAT, Strain/Sex: WISTAR/MALE, Route: ORAL, Dose: 0, 50, 500, 1250 MG/KG/D IN DIET TO PUPS OF PARENTS GIVEN THE SAME DIETARY DOSE LEVELS FOR 60 D PRIOR TO MATING (STUDY D, Dose: 0, 50, 500, 1250 MG/KG/D IN DIET TO PUPS OF PARENTS GIVEN THE SAME DIETARY DOSE LEVELS FOR 60 D PRIOR TO MATING (STUDY D): inactive; negative

SMILES: Oc1cccc2cccnc12
- carcinogen call (Species: MOUSE, Strain/Sex: B6C3F1/FEMALE, Route: ORAL, Dose: 0, 1500, 3000 PPM IN DIET FOR 103 WK, Dose: 0, 1500, 3000 PPM IN DIET FOR 103 WK): inactive; negative
- carcinogen call (Species: MOUSE, Strain/Sex: B6C3F1/MALE, Route: ORAL, Dose: 0, 1500, 3000 PPM IN DIET FOR 103 WK, Dose: 0, 1500, 3000 PPM IN DIET FOR 103 WK): inactive; negative
- carcinogen call (Species: RAT, Strain/Sex: F344/FEMALE, Route: ORAL, Dose: 0, 1500, 3000 PPM IN DIET FOR 103 WK, Dose: 0, 1500, 3000 PPM IN DIET FOR 103 WK): inactive; negative
- carcinogen call (Species: RAT, Strain/Sex: F344/MALE,FEMALE, Route: ORAL, Dose: 0.1% IN DIET FOR 2 YR): inactive; negative
- carcinogen call (Species: RAT, Strain/Sex: F344/MALE, Route: ORAL, Dose: 0, 1500, 3000 PPM IN DIET FOR 103 WK, Dose: 0, 1500, 3000 PPM IN DIET FOR 103 WK): inactive; negative
